Key:
[1] = system: patients having esophageal erosions; assay: Randomized seven day trial in patients with esophageal erosions (Example 19); type: in vivo, human; details: for Complete Relief, number of patients / Complete Relief, percent of patients: loss of all symptoms by day 8; for Complete Healing, number of patients / Complete Healing, percent of patients: no erosions by endoscopy at day 8
From the text: The trial period was seven days. There were two primary end points, i.e., healing and no healing, and three secondary end points, i.e., no relief, partial relief, and complete relief of pain. Healing was defined as no evidence of erosions by endoscopy at day 8 that were present on day 0. No healing was defined as evidence of erosions remaining on day 8.

[2] = system: patient with functional dyspepsia; assay: Case: patient with functional dyspepsia (Example 14); type: in vivo, human; details: post-prandial early satiety, bloating, indigestion
From the text: A person diagnosed with functional dyspepsia according to the Rome II criteria suffered from post-prandial early satiety, bloating, and stomach indigestion. […] Initially, there was only a lessening of post-prandial indigestion.

right dorsal colitis = assay: Case: equine right dorsal colitis (Example 23); type: in vivo, horse; details: 8-12 grams four times daily, NSAID stopped
Procedure: An 8 year old quarter horse diagnosed with right dorsal colitis by an equine veterinarian had been on high doses of bananime, a non-steroidal anti-inflammatory (NSAID) pain reliever. Right dorsal colitis is known to be caused by ulcerations within the colon of the horse. Treatment was initiated by cessation of the NSAID and administration of 8-12 grams sucralfate four times daily. […] Oral administration to the horse of 30 ml of an immuno-modulating polygalacturonic-rhamnose suspension every 8 hours led to an improvement in attitude and appetite within 24 hours, a complete cessation of diarrhea in 36 hours, and the resumption of a regular diet in 72 hours.

[3] = system: gastroduodenal ulceration; assay: Case: equine ulcer colic in a foal (Example 24); type: in vivo; details: prior treatment
From the text: A 3 week old equine foal was diagnosed by a large animal veterinarian with gastroduodenal ulceration following 3 days of poor appetite. […] The foal resumed normal diet and activity by day 4 of treatment.

Row | Compound | Complete Relief, number of patients [1] | Complete Relief, percent of patients [1] | Complete Healing, number of patients [1] | Complete Healing, percent of patients [1] | Complete Healing, percent of patients ([1]; listed as ranitidine) | Effect on symptoms of functional dyspepsia [2] | Course of right dorsal colitis under treatment (right dorsal colitis) | Effect on symptoms [3]
1 | CNC(=C[N+](=O)[O-])NCCSCc1ccc(CN(C)C)o1 [H2B Ranitidine, ranitidine] | 3 | 30% | 0 (0%) | 0 (0%) | 0% |  |  | 
2 | COc1ccc2[nH]c([S+]([O-])Cc3ncc(C)c(OC)c3C)nc2c1 (centres unmarked) [Omeprazole, omeprazole] | 4 | 40% | 3 | 30% |  |  |  | 
3 | COc1ccc2nc([S@@+]([O-])Cc3ncc(C)c(OC)c3C)[nH]c2c1 [esomeprazole] |  |  |  |  |  | failed to improve their symptoms |  | 
4 | COCCCOc1ccnc(C[S+]([O-])c2nc3ccccc3[nH]2)c1C (centres unmarked) [raberazole] |  |  |  |  |  | failed to improve their symptoms |  | 
5 | sucralfate |  |  |  |  |  | failed to improve their symptoms | worsened after 2 days | failed to alleviate the symptoms
